In paper PMC12692861, “Biotin-Linked Ursolic Acid Conjugates as Selective Anticancer Agents and Target-Identification Tools for Cancer Therapy” (Molecules, 2025):

Tests used:
MCF-12A = assay: MTT assay, non-tumorigenic breast epithelial cell line; type: cell-based, human; conditions: for IC50: Homo sapiens, MCF-12A, MTT, 72 h, non-tumorigenic cells, read-out: IC50 (Mean ± SD), MCF-12A
Experimental: The synthesized hybrid conjugates 5a–d were evaluated for their antiproliferative activity against the established human bladder cancer cell lines T24 and 5637. Test compounds were dissolved in ultrapure dimethyl sulfoxide (DMSO), diluted in cell culture media, added to cells cultured in 96-well cluster wells, and incubated for 72 h. The concentration of DMSO in culture media was maintained at < 0.05%. As previously reported, the fraction of viable cells in the culture wells was compared to that in cultures with 0.05% DMSO-only using a colorimetric assay, the Methyl Tetrazolium Bromide (MTT) reduction assay. We determined the selectivity index (SI) of the compounds 5a–d against tumor cells by comparing their cytotoxicity to that of a non-tumorigenic breast epithelial cell line, MCF-12A, as well as a non-tumorigenic, immortalized urothelial cell line, UROtsa (Table 1, and Figure 2).
The antiproliferative activities of various compounds examined in this report were measured using the MTT (3-[4,5-dimethylthiazol-2-yl]-2,5-diphenyl-tetrazolium bromide) reduction assay, as previously described. Briefly, cells were seeded at 2 × 10^3 cells per well in a 96-well plate and cultured overnight. The cells were then treated with different doses (5 µM, 10 µM, 15 µM, 20 µM, 25 µM, 30 µM, 35 µM, 40 µM in DMSO) for 72 h. Viability of the treated cultures was estimated by conversion of MTT to the insoluble formazan after 3h incubation at 37 °C and 5% CO2. The purple-colored formazan crystals were dissolved in DMSO, and absorbance was recorded at wavelengths 570/640 nm using the Bio-Rad Benchmark Plus Microplate Reader. The percent of viable cells was calculated ODtreated cells/ODcontrol cell wells × 100.

MB49 cells = assay: ROS estimation with H2DCFDA; type: cell-based, murine; conditions: MB49, 24 h; for ROS levels: 5–40 µM
Experimental: Since 5c was not toxic to non-tumorigenic cells, such as MCF12A and UROtsa, these cells were excluded from experiments aimed at identifying the broad mechanism of cytotoxicity. A common mechanism by which these antioxidants induce cytotoxicity in tumor cells is by generating Reactive Oxygen Species (ROS) selectively in fast-growing tumor cells. The levels of ROS generated by 5c exposed cells were evaluated with the oxidation of 2′,7′-dichlorodihydrofluorescein diacetate (H2DCFDA). It is a cell-permeant fluorescent probe used for detecting ROS production (Thermo Scientific Inc., Waltham, MA, USA). […] Figure 3 illustrates the quantification of intracellular ROS levels in four bladder cancer cell lines, 5637, T24, HT-1376, and MB49, following treatment with UA and its biotin-conjugated derivative, compound 5c.
The relative levels of intracellular ROS produced in untreated and drug-treated cells were analyzed by fluorimetry using the fluorescent probe H2DCFDA (Sigma-Aldrich, #D6883, St. Louis, MI, USA), as described previously. Briefly, cells cultured in a 96-well plate at 1 × 10^4 cells per well were treated with drugs of interest for 24 h rinsed with sterile PBS to remove excess drugs, and incubated with 10 μM DCFDA for 30 min at 37 °C and 5% CO2. Following three rinses with PBS, the fluorescence intensity was recorded at excitation: 485/20, emission: 528/20 using a BioTek Synergy HTX Multimode fluorescence plate reader (Agilent Technologies, Inc., Santa Clara, CA, USA), and the data were represented as percentage change compared to the respective untreated control.
Figure 3 Estimation of oxidative stress: Treatment with UA or 5c increased ROS levels in various bladder cancer cells. ROS levels were estimated at 24 h using DCFDA. The relative fluorescence unit (RFU) was normalized to that observed in untreated cells and expressed as a percent increase. Data are Means ± SD, (n = 4). Relative significance, expressed as p-value are calculated based on one-way ANOVA.

5637 = assay: Cell cycle phase fractionation by flow cytometry (PI); type: cell-based, human; conditions: 5637, 24 h, mean ± SD n=3
Source text: (§1) Cells treated with some antiproliferative drugs are blocked from orderly progression from one stage of their mitotic cycle to the next due to inhibition of a specific stage of the cell cycle. Analysis by flow cytometry (FC) of DNA content in the nuclei of drug-treated cells is a well-established technique for evaluating the fractions of cells in each stage of the cell cycle based on their DNA content. In this study, we employed FC to examine whether treatment with UA or 5c affects the orderly cell cycle progression from G0/G1, S, and G2M before entering Mitosis (M). Figure 6 represents the effect of UA and 5c on cell cycle progression in four bladder cancer cell lines, 5637, HT-1376, T-24, and MB-49, after a […] treatment at a concentration of 12 µM. Following the treatment, nuclei suspensions from treated cells were prepared by direct cell lysis in a hypotonic solution, with simultaneous staining with PI (100 µg/mL). The resulting nuclei suspension and the samples were run on the flow cytometer and analyzed for DNA content.
(§2) Cells cultured in 35 mm diameter, 6-well cluster plates (Corning Inc., Corning, NY, USA) overnight at a density of 0.3 × 10^6 cells/well, and treated with various compounds at selected concentrations for 24 h. After completion of treatment, cells were washed twice with PBS, followed by the addition of Propidium Iodide (PI) containing […] solution [(0.1 mg/mL PI), 50mg Na-citrate, 15 µL of IGEPAL CA-630], 1 mL in each well, and incubated for 30–45 min at 37 °C and 5% CO2. After that data acquired using the NovoCyte Quanteon Flow Cytometer was analyzed using NovoExpress software (version 1.6.1).

HT-1376 = assay: as above; type: cell-based, human; conditions: HT-1376, 24 h, mean ± SD n=3
Source text: as §1, §2

T24 = assay: as above; type: cell-based, human; conditions: T24, 24 h, mean ± SD n=3
Source text: as §1, §2

MB49 = assay: as above; type: cell-based, murine; conditions: MB49, 24 h, mean ± SD n=3
Source text: as §1, §2

SMILES	IC50 (MCF-12A) [µM]	toxicity to non-tumorigenic cells (MCF-12A; MCF12A)	ROS levels (MB49 cells)	ROS response relative to UA (MB49 cells; 30–40 µM)	Cell-Cycle Phase-Fractions G1 5637	Cell-Cycle Phase-Fractions G2/M 5637	Cell-Cycle Phase-Fractions S 5637	Cell-Cycle Phase-Fractions G1 (HT-1376)	Cell-Cycle Phase-Fractions G2/M (HT-1376)	Cell-Cycle Phase-Fractions S (HT-1376)	Cell-Cycle Phase-Fractions G1 (T24)	Cell-Cycle Phase-Fractions G2/M (T24)	Cell-Cycle Phase-Fractions S (T24)	Cell-Cycle Phase-Fractions G1 (MB49)	Cell-Cycle Phase-Fractions G2/M (MB49)	Cell-Cycle Phase-Fractions S (MB49)
CC1CCC2(C(=O)OCCCCOC(=O)CCCCC3SCC4NC(=O)NC43)CCC3(C)C(=CCC4C5(C)CCC(O)C(C)(C)C5CCC43C)C2C1C [Compound 5c, 4-((5-((3aS,4S,6aR)-2-Oxohexahydro-1H-thieno [3,4-d]imidazol-4-yl)pentanoyl)oxy) butyl 3-hydroxy-urs-12-en-28-oate]	83.11 ± 0.3	not toxic	concentration-dependent increase in ROS levels	more robust ROS response	47.78 ± 0.60 % of total	16.79 ± 0.73 % of total	35.42 ± 1.33 % of total	52.11 ± 0.06 % of total	16.15 ± 0.71 % of total	31.73 ± 0.65 % of total	55.10 ± 0.37 % of total	15.20 ± 0.02 % of total	29.70 ± 0.39 % of total	53.52 ± 1.25 % of total	18.43 ± 0.69 % of total	28.05 ± 0.56 % of total
C[C@H]1[C@H](C)CC[C@]2(C(=O)O)CC[C@]3(C)C(=CC[C@@H]4[C@@]5(C)CC[C@H](O)C(C)(C)[C@@H]5CC[C@]43C)[C@H]12 [UA, Ursolic acid]	56.4 ± 7.6	–	concentration-dependent increase in ROS levels	–	43.52 ± 0.88 % of total	18.59 ± 2.05 % of total	37.89 ± 1.16 % of total	52.40 ± 0.56 % of total	17.17 ± 1.04 % of total	30.43 ± 0.48 % of total	57.76 ± 2.60 % of total	19.95 ± 1.82 % of total	22.29 ± 0.77 % of total	59.75 ± 0.77 % of total	19.12 ± 1.09 % of total	21.13 ± 1.49 % of total
